Experimental data published in ChEMBL document CHEMBL4033669, “Guanylthiourea derivatives as potential antimalarial agents: Synthesis, in vivo and molecular modelling studies” (Eur J Med Chem, 2017).
Calls of active or inactive are those of the source. No cut-off for these calls is given here.

What was measured:
Plasmodium berghei [1] = assay: (§1) Antimalarial activity against Plasmodium berghei in Swiss mouse inoculated with parasite infected red blood cells assessed as reduction in parasitemia at 100 mg/kg/day, ip administered 4 hrs post infection on day 0, 1, 2 , 3 measured on day 4 post infection by giemsa staining based microscopic method; type: functional, organism-based
Mus musculus = assay: Toxicity in Swiss mouse inoculated with parasite infected red blood cells assessed as mortality at 100 mg/kg/day, ip administered 4 hrs post infection on day 0, 1, 2 , 3 measured on day 4; type: organism-based; settings: in vivo
Plasmodium berghei [2] = assay: Antimalarial activity against Plasmodium berghei in Swiss mouse inoculated with parasite infected red blood cells assessed as mean survival time at 100 mg/kg/day, ip administered 4 hrs post infection on day 0, 1, 2 , 3; type: functional
Plasmodium berghei [3] = assay: as §1, with “day 7” for “day 4”; type: functional, organism-based
[4] = Oral bioavailability in Sprague-Dawley rat at 10 mg/kg, administered via gavage; type: ADME, organism-based; settings: in vivo
[5] = Apparent permeability across apical to basolateral side in human Caco2 cells at 50 uM after 90 mins by LC-MS/MS method; type: ADME, cell-based; settings: Caco-2

| Structure (SMILES) | Activity (Plasmodium berghei [1]) | Activity (Mus musculus) | also measured |
| --- | --- | --- | --- |
| N=C(N)/N=C(\N)SCc1ccccc1C(F)(F)F | inactive | Toxic | – |
| N=C(N)/N=C(\N)SCc1ccc(F)cc1 | inactive | Toxic | – |
| N=C(N)/N=C(\N)SCCCOc1ccc(I)cc1 | – | – | MST (Plasmodium berghei [2]): 26 days |
| N=C(N)/N=C(\N)SCCCOc1ccc(Cl)c(Cl)c1 | – | – | MST (Plasmodium berghei [2]): 24 days |
| N=C(N)NC(=N)SCc1cccc([N+](=O)[O-])c1 | inactive | Toxic | – |
| N=C(N)NC(=N)SCc1cccc(C(F)(F)F)c1 | inactive | Toxic | – |
| N=C(N)/N=C(\N)SCCCOc1c(Cl)cc(Cl)cc1Cl | – | – | MST (Plasmodium berghei [2]): 24 days |
| N=C(N)/N=C(\N)SCc1ccccc1[N+](=O)[O-] | inactive | Toxic | – |
| N=C(N)/N=C(\N)SCCOc1cccc(Br)c1 | – | – | MST (Plasmodium berghei [2]): 25 days |
| N=C(N)/N=C(\N)SCc1cccc(CS/C(N)=N/C(=N)N)c1 | – | – | MST (Plasmodium berghei [2]): 20 days |
| N=C(N)/N=C(\N)SCCOc1nc2ccccc2s1 | – | – | Activity (Plasmodium berghei [3]): Active |
| N=C(N)/N=C(\N)SCc1cccc(Cl)c1 | inactive | Toxic | – |
| Cc1ccc(CSC(=N)N=C(N)N)cc1 | inactive | Toxic | – |
| N=C(N=C(N)N)SCc1cccc(I)c1 | inactive | Toxic | – |
| N=C(N)/N=C(\N)SCc1ccc(OCc2cccc(Br)c2)cc1 | inactive | Toxic | – |
| N#Cc1ccc(CS/C(N)=N/C(=N)N)cc1 | inactive | – | – |
| N#Cc1ccc(CSC(=N)NC(=N)N)cc1 | – | Toxic | – |
| CC1(C)N=C(N)N=C(N)N1OCCCOc1cc(Cl)c(Cl)cc1Cl | – | – | bioavailability [4]: < 1%; Papp A→B at 1.5 h, 50 µM [5]: < 1.2 nm/s |
